These are literature values, as cited in US20080274189A1, “Organic Compounds Comprising a Glycopyrr Onium Salt” (priority 2005, published 2008).

For this series the following is noted: aerosol formulation, single administration of a metered dose, asthma.

On to `C[N+]1(C)CCC(OC(=O)C(O)(c2ccccc2)C2CCCC2)C1.[Br-]` (racemic) [glycopyrrolate, 3-[(cyclopentyl-hydroxyphenylacetyl)oxy]-1,1-dimethylpyrrolidinium bromide], for which the duration of bronchodilation result is “up to 12 hours”.
